This note sets out measurements from patent US8524702B2, “Substituted benzoazepines as toll-like receptor modulators” (VentiRx Pharmaceuticals, Inc., priority 2009, dated 2013).

Type in all cases: cell-based
The target in test [1] is T1, TLR8 (Homo sapiens, UniProt Q9NR97).
T1 sequence (Q9NR97 27-1041): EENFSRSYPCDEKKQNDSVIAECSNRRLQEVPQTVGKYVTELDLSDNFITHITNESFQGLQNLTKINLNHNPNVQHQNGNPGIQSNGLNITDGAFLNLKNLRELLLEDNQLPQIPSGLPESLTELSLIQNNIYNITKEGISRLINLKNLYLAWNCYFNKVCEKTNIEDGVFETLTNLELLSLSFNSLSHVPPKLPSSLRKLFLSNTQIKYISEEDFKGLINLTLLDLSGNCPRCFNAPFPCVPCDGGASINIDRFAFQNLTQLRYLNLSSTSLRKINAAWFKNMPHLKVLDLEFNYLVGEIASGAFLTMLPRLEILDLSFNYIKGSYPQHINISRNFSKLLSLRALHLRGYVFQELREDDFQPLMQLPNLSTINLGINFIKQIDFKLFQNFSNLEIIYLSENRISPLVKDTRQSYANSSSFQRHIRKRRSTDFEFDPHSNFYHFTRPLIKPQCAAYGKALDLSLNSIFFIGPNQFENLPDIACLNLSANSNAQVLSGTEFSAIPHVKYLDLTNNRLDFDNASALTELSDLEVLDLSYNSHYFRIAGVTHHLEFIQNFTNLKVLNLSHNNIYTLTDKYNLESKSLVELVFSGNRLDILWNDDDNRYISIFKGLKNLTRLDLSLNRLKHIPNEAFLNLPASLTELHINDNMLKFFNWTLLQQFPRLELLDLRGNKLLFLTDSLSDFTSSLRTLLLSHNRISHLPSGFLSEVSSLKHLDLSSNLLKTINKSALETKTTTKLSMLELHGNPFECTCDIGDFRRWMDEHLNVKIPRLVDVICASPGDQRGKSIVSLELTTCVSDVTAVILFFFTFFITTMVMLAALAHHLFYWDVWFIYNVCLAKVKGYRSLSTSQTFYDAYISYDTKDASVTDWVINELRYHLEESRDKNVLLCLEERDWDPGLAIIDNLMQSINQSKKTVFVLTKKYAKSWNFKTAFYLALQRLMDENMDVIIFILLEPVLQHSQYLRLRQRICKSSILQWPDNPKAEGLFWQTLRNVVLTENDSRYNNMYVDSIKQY
Description: TLR8 activity, MC50 values (procedure only by reference to Gorden et al. and Zhu et al.). To be noted: assay format not given. The text has this: Activity of the compounds can be assessed according to procedures described in, e.g., Gorden et al., Journal of Immunology 177, pp. 8164-8170 (2006) and Zhu et al., Molecular Immunology, vol. 45 (11), pp. 3238-3242 (2008).
MC50 values for TLR8 activity are, for example, as shown below: […]

Test [2] has as its target T2, TLR7 (Homo sapiens, UniProt Q9NYK1).
T2 sequence (Q9NYK1 27-1049): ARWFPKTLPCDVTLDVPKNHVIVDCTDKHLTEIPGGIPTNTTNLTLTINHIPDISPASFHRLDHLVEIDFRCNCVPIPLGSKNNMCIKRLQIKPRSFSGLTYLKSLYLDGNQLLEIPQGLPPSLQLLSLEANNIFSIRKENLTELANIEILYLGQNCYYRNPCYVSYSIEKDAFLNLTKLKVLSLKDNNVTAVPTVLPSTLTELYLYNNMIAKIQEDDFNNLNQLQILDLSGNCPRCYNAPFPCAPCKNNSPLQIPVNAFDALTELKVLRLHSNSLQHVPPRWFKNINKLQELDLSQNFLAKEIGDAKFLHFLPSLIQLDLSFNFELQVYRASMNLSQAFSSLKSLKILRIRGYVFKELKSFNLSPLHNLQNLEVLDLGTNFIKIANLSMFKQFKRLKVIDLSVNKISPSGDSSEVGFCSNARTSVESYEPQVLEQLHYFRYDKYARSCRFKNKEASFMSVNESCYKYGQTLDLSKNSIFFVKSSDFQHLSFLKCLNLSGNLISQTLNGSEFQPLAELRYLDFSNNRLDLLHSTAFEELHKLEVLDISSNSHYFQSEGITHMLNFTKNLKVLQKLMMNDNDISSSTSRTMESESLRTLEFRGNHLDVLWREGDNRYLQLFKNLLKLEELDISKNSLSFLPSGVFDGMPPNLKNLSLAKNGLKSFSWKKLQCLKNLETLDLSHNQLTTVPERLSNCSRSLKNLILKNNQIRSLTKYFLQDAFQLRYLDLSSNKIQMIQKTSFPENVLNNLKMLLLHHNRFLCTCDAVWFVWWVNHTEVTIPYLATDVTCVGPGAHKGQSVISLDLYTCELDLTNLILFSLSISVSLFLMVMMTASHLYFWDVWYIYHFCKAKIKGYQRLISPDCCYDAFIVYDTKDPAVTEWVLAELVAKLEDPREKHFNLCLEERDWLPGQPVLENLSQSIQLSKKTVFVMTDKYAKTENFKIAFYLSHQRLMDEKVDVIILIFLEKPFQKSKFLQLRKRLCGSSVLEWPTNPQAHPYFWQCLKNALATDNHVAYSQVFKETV
In words: PBMC assay for TLR7 (IFNα in supernatants by ELISA). On the set-up: Peripheral blood mononuclear cells (PBMCs) from human blood were isolated; endogenous in cells; host or cells: human PBMCs. The following applies: human PBMCs incubated with compound overnight, MC50 = concentration at which 50% of the maximum induction is seen. Here is the method:
(§1) Peripheral blood mononuclear cells (PBMCs) from human blood were isolated using BD Vacutainer Cell Preparation Tubes with sodium citrate. Cells were incubated with compound overnight. TLR8 activity was assayed by measuring the amount of TNFα in supernatants by ELISA. TLR7 activity was assayed by measuring the amount of IFNα in supernatants by ELISA (R&D Systems). […] The results of this assay are shown below in Tables 2 and 3.
(§2) MC50 numbers are represented as factors of ten, for example, + indicates an MC50 value of ×10^4, or a value in the tens of thousands of nanomolar (nM range); ++ indicates an MC50 value of ×10^3, or a value in the thousands; +++ indicates an MC50 value of ×10^2, or a value in the hundreds; and ++++ indicates an MC50 value of ×10^1 or 10°, or a value in the tens or ones.

For test [3], the target named is T1, TLR8. In words: PBMC assay for TLR8 (TNFα in supernatants by ELISA). On the set-up: Peripheral blood mononuclear cells (PBMCs) from human blood were isolated; endogenous in cells; host or cells: human PBMCs. To be noted: human PBMCs incubated with compound overnight, MC50 = concentration at which 50% of the maximum induction is seen. Here is the method: as §1, §2
A general note: An ELISA detects its analyte on a solid surface through an enzyme-linked reagent.

pEC50: −log10 of the molar value. Where a name gives a salt, the structure may show the parent alone.

Usually pEC50 stands for −log10 of the EC50, conventionally taken in molar units. In the case of `CCCN(C[C@@H](C)O)C(=O)C1=Cc2ccc(-c3ccc(C(=O)N4CCCC4)cc3)cc2N=C(N)C1` (single isomer, unassigned) [Compound 106], the figures for the pEC50 in test [1], in test [2] and in test [3] were 8.00, 5.00 to 6.00 and 7.00 to 9.00, respectively.

As to `CCCN(CCC)C(=O)C1=Cc2ccc(-c3ccc(C(=O)N(C)C)cc3)cc2N=C(N)C1` [Compound 124, (1E,4E)-2-amino-8-(4-(dimethylcarbamoyl)phenyl)-N,N-dipropyl-3H-benzo[b]azepine-4-carboxamide], the pEC50 was 6.98 in test [1], 5.00 to 6.00 in test [2] and 6.00 to 7.00 in test [3].

As for `CCCN(CCC)C(=O)C1=Cc2ccc(-c3ccc(C(=O)N4CC[C@@H](O)C4)cc3)cc2N=C(N)C1` [Compound 127, (1E,4E)-2-amino-8-(4-((R)-3-hydroxypyrrolidine-1-carbonyl)phenyl)-N,N-dipropyl-3H-benzo[b]azepine-4-carboxamide], the pEC50 is 8.40 in test [1], 5.00 to 6.00 in test [2] and 7.00 to 9.00 in test [3].

Consider `CCOC(=O)C1=Cc2ccc(-c3ccncc3)cc2N=C(N)C1` [Compound 143, (1E,4E)-ethyl 2-amino-8-(pyridin-4-yl)-3H-benzo[b]azepine-4-carboxylate], for which the results for the pEC50 in test [1] and in test [3] were 7.35 and 7.00 to 9.00, respectively.

In the case of `CCOC(=O)C1=Cc2ccc(-c3ccc(C(=O)N(C)C)cc3)cc2N=C(N)C1` [Compound 154, (1E,4E)-ethyl 2-amino-8-(4-(dimethylcarbamoyl)phenyl)-3H-benzo[b]azepine-4-carboxylate], the values for the pEC50 in test [1] and in test [3] were 6.94 and 6.00 to 7.00, respectively.

`CCCN(Cc1ccccc1O)C(=O)C1=Cc2ccc(-c3ccc(C(=O)N4CCCC4)cc3)cc2N=C(N)C1` [Compound 174, (1E,4E)-2-amino-N-(2-hydroxybenzyl)-N-propyl-8-(4-(pyrrolidine-1-carbonyl)phenyl)-3H-benzo[b]azepine-4-carboxamide hydrochloride]: the pEC50 in test [2] is 5.00 to 6.00; in test [3], 6.00 to 7.00.

On to `CCCN(CCCO)C(=O)C1=Cc2ccc(-c3ccc(C(=O)N4CC[C@H](O)C4)cc3)cc2N=C(N)C1` [Compound 182, (1E,4E)-2-amino-N-(3-hydroxypropyl)-8-(4-((S)-3-hydroxypyrrolidine-1-carbonyl)phenyl)-N-propyl-3H-benzo[b]azepine-4-carboxamide], for which the results for the pEC50 in test [2] and in test [3] were 5.00 to 6.00 and 7.00 to 9.00, respectively.

Regarding `CCCN(CCC)C(=O)C1=Cc2ccc(-c3cccc(O)c3)cc2N=C(N)C1` [Compound 194, (1E,4E)-2-amino-8-(3-hydroxyphenyl)-N,N-dipropyl-3H-benzo[b]azepine-4-carboxamide], the pEC50 is 5.00 to 6.00 in test [2] and 6.00 to 7.00 in test [3].

With `CCCN(CCC)C(=O)C1=Cc2ccc(-c3ccc(O)cc3)cc2N=C(N)C1` [Compound 195, (1E,4E)-2-amino-8-(4-hydroxyphenyl)-N,N-dipropyl-3H-benzo[b]azepine-4-carboxamide], the pEC50 in test [2] and in test [3] was 6.00 to 7.00 each time.

As for `CCCN(CCC)C(=O)C1=Cc2ccc(-c3ccccc3C(=O)OCC)cc2N=C(N)C1` [Compound 203, Ethyl 2-((1E,4E)-2-amino-4-(dipropylcarbamoyl)-3H-benzo[b]azepin-8-yl)benzoate], the pEC50 was 5.00 to 6.00 in test [2] and 6.00 to 7.00 in test [3].

Regarding `CCCN(CCCO)C(=O)C1=Cc2ccc(-c3ccccc3C(=O)OCC)cc2N=C(N)C1` [Compound 204, Ethyl 2-((1E,4E)-2-amino-4-((3-hydroxypropyl)(propyl)carbamoyl)-3H-benzo[b]azepin-8-yl)benzoate], the figures for the pEC50 in test [2] and in test [3] were 5.00 to 6.00 and 6.00 to 7.00, respectively.

Regarding `CCCN(CCC)C(=O)C1=Cc2ccc(-c3ccc(C(=O)OC)cc3)cc2N=C(N)C1` [Compound 206, Methyl 4-((1E,4E)-2-amino-4-(dipropylcarbamoyl)-3H-benzo[b]azepin-8-yl)benzoate], the pEC50 in test [2] was 5.00 to 6.00; in test [3] it was 6.00 to 7.00.

As to `CCCN(CCC)C(=O)C1=Cc2ccc(-c3ccc(C(=O)OCOCC)cc3)cc2N=C(N)C1` [Compound 207, Ethoxymethyl 4-((1E,4E)-2-amino-4-(dipropylcarbamoyl)-3H-benzo[b]azepin-8-yl)benzoate], the pEC50 in test [2] and in test [3] was 5.00 to 6.00 each time.

Consider `CCCN(CCC)C(=O)C1=Cc2ccc(-c3ccc(C(=O)OCC)c(F)c3)cc2N=C(N)C1` [Compound 210, Ethyl 4-((1E,4E)-2-amino-4-(dipropylcarbamoyl)-3H-benzo[b]azepin-8-yl)-2-fluorobenzoate], for which the pEC50 in test [2] was 5.00 to 6.00; in test [3], 6.00 to 7.00.

Turning to `CCCN(CCCO)C(=O)C1=Cc2ccc(-c3ccc(C(=O)OCC)c(F)c3)cc2N=C(N)C1` [Compound 211, Ethyl 4-((1E,4E)-2-amino-4-((3-hydroxypropyl)(propyl)carbamoyl)-3H-benzo[b]azepin-8-yl)-2-fluorobenzoate], the pEC50 in test [2] was 5.00 to 6.00; in test [3], 6.00 to 7.00.

Regarding `CCCN(CCC)C(=O)C1=Cc2ccc(-c3ccc(C(=O)OC)nc3)cc2N=C(N)C1` [Compound 212, Methyl 5-((1E,4E)-2-amino-4-(dipropylcarbamoyl)-3H-benzo[b]azepin-8-yl)picolinate], the pEC50 in test [2] was 5.00 to 6.00; in test [3], 6.00 to 7.00.

As for `CCCN(CCCO)C(=O)C1=Cc2ccc(-c3ccc(/C=C/C(=O)OCC)cc3)cc2N=C(N)C1` [Compound 220, (E)-Ethyl 3-(4-((1E,4E)-2-amino-4-((3-hydroxypropyl)(propyl)carbamoyl)-3H-benzo[b]azepin-8-yl)phenyl)acrylate], the negative-log EC50 (pEC50) in test [2] was 4.00 to 5.00; in test [3], 6.00 to 7.00.
